The test system of this test is Staphylococcus aureus (ATCC #27660). Description: Rapid Germicidal Time Kill, ASTM protocol 04-123409-106. In kind it is cell-based. The conditions noted are these: for log reduction of organisms: nitrile gloves, versus applied organisms estimated from latex control. The protocol:
To test the antimicrobial efficacy of a polyhexamethylene biguanide, such as available commercially under the trademark Cosmosil® CQ from Arch Chemicals, Inc., Norwalk, Conn., we treated nitrile examination gloves according to ASTM protocol 04-123409-106 “Rapid Germicidal Time Kill.” Briefly, about 50 μL of an overnight culture of Staphylococcus aureus (ATCC #27660, 5×10^8CFU/mL) was applied to the glove material. After a total contact time of about 6 minutes the glove fabric was placed into a neutralizing buffer. Surviving organisms were extracted and diluted in Letheen broth. Aliquots were spread plated on Tryptic Soy Agar plates. Plates were incubated for 48 hours at 35° C. Following incubation the surviving organisms were counted and the colony forming units (CFU) were recorded. The reduction (log10) in surviving organisms from test material versus control fabric was calculated:
Log10 CFU/swatch Control−Log10 CFU/swatch Test Article=Log10 Reduction.

Consider polyhexamethylene biguanide, for which the “log reduction of Staphylococcus aureus” value (microtextured nitrile glove, machine applied at 0.03 g/glove) is listed as “greater than four”. Besides, the “log reduction of organisms” value by setting is: (hand sprayed with no heat) “greater than one”; (machine sprayed under heated conditions) “greater than 5 log”.

The record behind these values is US20060140994A1, “Application of an antimicrobial agent on an elastomeric article” (priority 2004, published 2006).
